Values quoted from earlier work in PMC12308805, “Ultrahigh-Throughput Virtual Screening Strategies against PPI Targets: A Case Study of STAT Inhibitors” (Journal of Chemical Information and Modeling, 2025).
Square brackets hold non-standard residues; d marks the D form. Peptide text beside a SMILES is read from it. * marks the point of attachment. Isobutyryl = CC(C)C(=O)*

tested on: STAT3; details: sheet 6QHD_actives_decoys; retrospective screening set for STAT3 SH2 domain (PDB 6QHD); […]; ref DUD-E; cited from earlier work

| SMILES | Type |
| --- | --- |
| COc1ccc(NC(=O)c2cc(C)nc3c2c(C)nn3C)cc1NS(=O)(=O)c1ccc(F)cc1 [Decoy619] | Inactive (Decoy) |
| Cc1ccc(S(=O)(=O)N[C@]2(C(F)(F)F)C(=O)Nc3c2c(=O)nc(O)n3-c2ccccc2)cc1 [Decoy629] | Inactive (Decoy) |
| CCOC(=O)C1=C(SC)S[C@@H](/C(C(=O)OCC)=C2/NN=C(c3ccccc3)O2)N=C1N [Decoy644] | Inactive (Decoy) |
| CCCNC(=O)CN1CCN(c2cc(C(=O)O)c3cc(NS(=O)(=O)c4cccc(C)c4)ccc3n2)CC1 [Decoy646] | Inactive (Decoy) |
| NCCNC(=O)Cc1ccc(NC(=O)Cc2ccc(Nc3ncnc4c3ncn4[C@@H]3O[C@H](CO)[C@@H](O)[C@H]3O)cc2)cc1 [Decoy655] | Inactive (Decoy) |
| O=C(Nc1ccc([N+](=O)[O-])cc1[N+](=O)[O-])[C@@](F)(OC(F)(F)[C@@](F)(OC(F)(F)C(F)(F)C(F)(F)F)C(F)(F)F)C(F)(F)F [Decoy658] | Inactive (Decoy) |

same assay, conditions: sheet 6QHD_actives_decoys; retrospective screening set for STAT3 SH2 domain (PDB 6QHD); decoys generated with DUD-E and presumed inactive, not tested; ref DUD-E; cited from earlier work

| SMILES | Type |
| --- | --- |
| CCOC(=O)c1c(C)oc(NC(=O)[C@@H](CC)n2c(N)nnc2SCC(=O)OC)c1C(=O)OCC [Decoy617] | Inactive (Decoy) |
| Cc1ccc(NC(=O)NC[C@@H](C)Cn2cccn2)cc1NC(=O)NC[C@H](C)Cn1cccn1 [Decoy618] | Inactive (Decoy) |
| OC[C@@H](O)CN(C[C@H](O)CO)c1ccc(Cc2ccc(N(C[C@H](O)CO)C[C@@H](O)CO)cc2)cc1 [Decoy620] | Inactive (Decoy) |
| C[C@H](OC(=O)[C@@](O)(Cc1ccc(O)cc1)[C@H](C)O)[C@@](O)(Cc1ccc(O)cc1)C(=O)OCc1ccc(O[C@H]2O[C@@H](CO)[C@@H](O)[C@@H](O)[C@H]2O)cc1 [Decoy621] | Inactive (Decoy) |
| COC(=O)[C@@H]1O[C@@H](O[C@@H]2CC[C@@]3(C)[C@@H](CC[C@@H]4[C@H]5CC[C@@H](/C(COC(C)=O)=N/NC(N)=O)[C@@]5(C)CC(=O)[C@H]43)C2)[C@H](OC(C)=O)[C@@H](OC(C)=O)[C@@H]1OC(C)=O [Decoy622] | Inactive (Decoy) |
| COCCN(CCOC)S(=O)(=O)c1ccc(C(=O)Nc2sccc2C(=O)NN(C)C)cc1 [Decoy623] | Inactive (Decoy) |
| O=C(CSc1cn[nH]n1)Nc1ccc(-c2nc3ccc(NC(=O)CSc4cn[nH]n4)cc3s2)c(O)c1 [Decoy624] | Inactive (Decoy) |
| COC(=O)c1ccc(NC(=O)CSc2nn3c(SCC(=O)Nc4ccc(C(=O)OC)cc4)nnc3s2)cc1 [Decoy625] | Inactive (Decoy) |
| CNC(=O)[C@H](CC(C)C)NC(=O)[C@H](Cc1c[nH]cn1)NC(=O)[C@@H](C)NC(=O)[C@@H](NC(=O)[C@H](C)NC(=O)[C@H](Cc1c[nH]c2ccccc12)NC(=O)[C@H](Cc1cnc[nH]1)NC(=O)C(C)C)C(C)C [Decoy626] (Isobutyryl-HWAV[dA]HL-NHMe) | Inactive (Decoy) |
| CCCCCCCCCC(=O)O[C@@H]1[C@@H](O[C@@]2(CO)O[C@@H](CO)[C@@H](O)[C@H]2OC(=O)C(C)C)O[C@@H](CO)[C@@H](OC(=O)C(C)C)[C@H]1OC(=O)C(C)C [Decoy627] | Inactive (Decoy) |
| COc1cc(C(=O)NCc2nnc(SCC(=O)Nc3ccc(F)cc3)n2-c2cccc(C)c2)cc(OC)c1OC [Decoy628] | Inactive (Decoy) |
| COC(=O)c1cc2c(cc1C(=O)OC)OCCOCCOCCN(Cc1cn(CCOCCOCCO)nn1)CCOCCOCCO2 [Decoy630] | Inactive (Decoy) |
| CCOCCOc1ccccc1C(=O)N/C(S)=N\NC(=O)COc1ccc([N+](=O)[O-])cc1 [Decoy631] | Inactive (Decoy) |
| CCN(CC)C(=O)c1sc(NC(=O)CCSCCC(=O)Nc2sc(C(=O)N(CC)CC)c(C)c2C(=O)OC)c(C(=O)OC)c1C [Decoy632] | Inactive (Decoy) |
| COC(=O)[C@@H]1O[C@H](OCC(=O)[C@@]2(O)CC[C@@H]3[C@H]4CCC5=CC(=O)CC[C@@]5(C)[C@@H]4[C@@H](O)C[C@@]32C)[C@@H](OC(C)=O)[C@H](OC(C)=O)[C@H]1OC(C)=O [Decoy633] | Inactive (Decoy) |
| COC(=O)[C@H]1O[C@H](OCC(=O)[C@@]2(O)CC[C@H]3[C@H]4CCC5=CC(=O)C=C[C@@]5(C)[C@@H]4[C@@H](O)C[C@@]32C)[C@@H](OC(C)=O)[C@H](OC(C)=O)[C@H]1OC(C)=O [Decoy634] | Inactive (Decoy) |
| COc1cc(/N=N/c2ccc(N)cc2)c(C)cc1/N=N/c1c(S(=O)(=O)O)cc2ccc(N)cc2c1O [Decoy635] | Inactive (Decoy) |
| CC(=O)N[C@@H]1[C@@H](O)[C@H](O[C@@H]2O[C@H](CO)[C@H](O)[C@H](O[C@@]3(C(=O)O)C[C@H](O)[C@@H](NC(C)=O)[C@H]([C@H](O)[C@H](O)CO)O3)[C@H]2O)[C@@H](CO)O[C@H]1O [Decoy636] | Inactive (Decoy) |
| CC(=O)N[C@@H]1[C@@H](O)[C@H](O[C@@H]2O[C@H](CO)[C@H](O)[C@H](O[C@@]3(C(=O)O)C[C@H](O)[C@H](NC(C)=O)[C@H]([C@H](O)[C@H](O)CO)O3)[C@H]2O)[C@@H](CO)O[C@H]1O [Decoy637] | Inactive (Decoy) |
| CC(=O)N[C@@H]1[C@@H](O)[C@H](O[C@@H]2O[C@H](CO)[C@H](O)[C@H](O[C@]3(C(=O)O)C[C@H](O)[C@@H](NC(C)=O)[C@H]([C@H](O)[C@H](O)CO)O3)[C@H]2O)[C@@H](CO)O[C@@H]1O [Decoy638] | Inactive (Decoy) |
| COc1cc([N+](=O)[O-])cc(/C=N/NC(=O)CSc2nnc(-c3cccc(Br)c3)n2C)c1O [Decoy639] | Inactive (Decoy) |
| CC(C)(CO[P@](=O)(O)O[P@](=O)(O)OC[C@H]1O[C@@H](n2cnc3c(N)ncnc32)[C@@H](O)[C@H]1O)[C@H](O)C(=O)NCCC(=O)NCCS [Decoy640] | Inactive (Decoy) |
| COc1cc(O)cc(C)c1C(=O)O[C@H]1[C@H](O)[C@@H](O)[C@@H](OC2[C@@H](O)[C@H](O)C(O)[C@H](O)[C@@H]2O)O[C@@H]1CO (stereo partly shown) [Decoy641] | Inactive (Decoy) |

| SMILES | Type |
| --- | --- |
| Cc1nn(C)c(C)c1CCCN(C)c1ccc(NS(=O)(=O)c2ccc(C(C)C)cc2)cc1C(=O)O [Decoy642] | Inactive (Decoy) |
| CC(=O)OC[C@H]1O[C@@H](O[C@@]2(CO)O[C@@H](CO)[C@@H](OC(C)=O)[C@H]2OC(C)=O)[C@@H](OC(C)=O)[C@@H](OC(C)=O)[C@@H]1O [Decoy643] | Inactive (Decoy) |
| CCOc1ccc([C@@H]2C(C(=O)c3ccc(Cl)cc3)=C(O)C(=O)N2CCCn2ccnc2)cc1OCC [Decoy645] | Inactive (Decoy) |
| COc1cc([C@@H]2C(C(=O)c3ccc4c(c3)OCCO4)=C(O)C(=O)N2CCCn2ccnc2)cc(Br)c1O [Decoy647] | Inactive (Decoy) |
| OCCN(CCO)C1=N[C@@H]2C(N3CCCCC3)=NC(N(CCO)CCO)=N[C@@H]2C(N2CCCCC2)=N1 [Decoy648] | Inactive (Decoy) |
| CC[C@@H](C)[C@@H](NC(=O)CNC(=O)CCc1c(C)c2cc3c(C)coc3c(C)c2oc1=O)C(=O)O [Decoy649] | Inactive (Decoy) |
| CC[C@H](C)[C@@H](NC(=O)CNC(=O)CCc1c(C)c2cc3c(C)coc3c(C)c2oc1=O)C(=O)O [Decoy650] | Inactive (Decoy) |
| COc1cc(NC(=S)/N=C(\NCCc2c[nH]cn2)Nc2nc(C)cc(C)n2)c(OC)cc1Cl [Decoy651] | Inactive (Decoy) |
| O=C(O)CN(CC(=O)O)CC1=C[C@H]2C(=CC1=O)Oc1cc(O)c(CN(CC(=O)O)CC(=O)O)cc1[C@@]21OC(=O)c2ccccc21 [Decoy652] | Inactive (Decoy) |
| Cc1ccc(S(=O)(=O)NCCN(CCN(CCNS(=O)(=O)c2ccc(C)cc2)S(=O)(=O)c2ccc(C)cc2)S(=O)(=O)c2ccc(C)cc2)cc1 [Decoy653] | Inactive (Decoy) |
| CCOC(=O)c1sc(Nc2ccc(NC(=O)C[C@@H](NCCOC)C(=O)O)cc2)nc1C [Decoy654] | Inactive (Decoy) |
| O=C(NCCCCCCNC(=O)N(CCO)[C@H]1CCS(=O)(=O)C1)N(CCO)[C@@H]1CCS(=O)(=O)C1 [Decoy656] | Inactive (Decoy) |
| CC[C@@H](O)[C@@](C)(O)/C=C(\C)C(=O)[C@H](C)C[C@@](C)(OC)[C@H](O[C@@H]1O[C@H](C)C[C@H](N(C)C)[C@H]1O)[C@@H](C)[C@H](O[C@H]1C[C@@](C)(OC)[C@@H](O)[C@H](C)O1)[C@@H](C)C(=O)O [Decoy657] | Inactive (Decoy) |
| COc1cc(NS(=O)(=O)c2ccc(NC(=S)NC(=O)/C=C/c3cccc4ccccc34)cc2)ncn1 [Decoy659] | Inactive (Decoy) |
| CC(=O)O[C@@H]1[C@@H](O)[C@@H](O[C@@H](/C=N\N2CCOCC2)[C@@H](CO)O[C@H](O)/C=N/N2CCOCC2)O[C@@H](CO)[C@H]1O [Decoy660] | Inactive (Decoy) |
| COc1ccc(-c2cc(=O)c3c(O)c(OC)c(O[C@@H]4O[C@H](CO[C@@H]5O[C@@H](C)[C@H](O)[C@@H](O)[C@H]5O)[C@@H](O)[C@H](O)[C@H]4O)cc3o2)cc1 [Decoy661] | Inactive (Decoy) |
| C=C[C@](C)(O)CC/C=C(\C)C(=O)OC[C@H]1O[C@@H](O[C@@](C)(C=C)CC/C=C(\C)C(=O)O)[C@H](O)[C@@H](OC(=O)/C(C)=C/CC[C@](C)(O)C=C)[C@@H]1O [Decoy662] | Inactive (Decoy) |
| COCCN(C/C(O)=N/c1nc(-c2ccc(Cl)cc2)cn1-c1ccc(OC)cc1)C(=O)C1CCCC1 [Decoy663] | Inactive (Decoy) |
| CC(=O)N[C@H]1[C@H]([C@H](O)[C@H](O)CO)O[C@@](O[C@H]2[C@@H](O)[C@@H](CO)O[C@@H](O[C@@H]([C@H](O)[C@@H](O)C=O)[C@H](O)CO)[C@@H]2O)(C(=O)O)C[C@@H]1O [Decoy664] | Inactive (Decoy) |
| COc1ccc(C(=O)Nc2ccc(S(=O)(=O)c3ccc(NC(=O)c4ccc(OC)c(OC)c4)cc3)cc2)cc1OC [Decoy665] | Inactive (Decoy) |
| CN(Cc1cnc2nc(N)nc(N)c2n1)c1ccc(C(=O)N[C@H](CCC(=O)NCCNC(=O)CCCC[C@@H]2SC[C@@H]3NC(=O)N[C@@H]32)C(=O)O)cc1 [Decoy666] | Inactive (Decoy) |
| [H]/N=C(N/C(N)=N\c1nc(C)c2cc(OC)ccc2n1)\C(C(=O)c1ccccc1)=C(/O)OCC [Decoy667] | Inactive (Decoy) |
| O=C(Nc1ccc(S(=O)(=O)Nc2ncccn2)cc1)c1cccc(C(=O)Nc2ccc(S(=O)(=O)Nc3ncccn3)cc2)n1 [Decoy668] | Inactive (Decoy) |
